Assay results from US6770596B1, “Fused tricyclic compounds, process for their preparation, and herbicidal compositions containing them” (Ishihara Sangyo Kaisha Ltd., priority 2002, dated 2004).

Columns and labels:
Assay type in all cases: in vivo
[1] = tested on: redroot pigweed (Amaranthus retroflexus, AMR); assay: Pre-emerge test, redroot pigweed; details: 250 g ai/ha, 14 days after application, rating scale 0-100 (0 no damage, 100 complete death)
Outline: (§1)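 Pre-emerge greenhouse screen: sow, wait 1 d, spray acetone solution (8–1000 g ai/ha, 187 l/ha), rate injury 0–100 at 14 DAT.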

[2] = tested on: velvetleaf (Abutilon theophrasti, ABT); assay: Pre-emerge test, velvetleaf; details: 250 g ai/ha, 14 days after application, rating scale 0-100 (0 no damage, 100 complete death)
Outline: as §1

[3] = tested on: sicklepod (Cassia obtusifolia, CAO); assay: Pre-emerge test, sicklepod; details: 250 g ai/ha, 14 days after application, rating scale 0-100 (0 no damage, 100 complete death)
Outline: as §1

[4] = tested on: ivyleaf morningglory (Ipomoea hederacea, IPH); assay: Pre-emerge test, ivyleaf morningglory; details: 250 g ai/ha, 14 days after application, rating scale 0-100 (0 no damage, 100 complete death)
Outline: as §1

[5] = tested on: lambsquarters (Chenopodium album, CHA); assay: Pre-emerge test, lambsquarters; details: 250 g ai/ha, 14 days after application, rating scale 0-100 (0 no damage, 100 complete death)
Outline: as §1

[6] = tested on: common ragweed (Ambrosia artemisiifolia L., AML); assay: Pre-emerge test, common ragweed; details: 250 g ai/ha, 14 days after application, rating scale 0-100 (0 no damage, 100 complete death)
Outline: as §1

[7] = tested on: cocklebur (Xanthium strumariunt, XAS); assay: Pre-emerge test, cocklebur; details: 250 g ai/ha, 14 days after application, rating scale 0-100 (0 no damage, 100 complete death)
Outline: as §1

[8] = tested on: green foxtail (Setaria viridis, SEV); assay: Pre-emerge test, green foxtail; details: 250 g ai/ha, 14 days after application, rating scale 0-100 (0 no damage, 100 complete death)
Outline: as §1

[9] = tested on: barnyardgrass (Echinachloa crus-galli, ECC); assay: Pre-emerge test, barnyardgrass; details: 250 g ai/ha, 14 days after application, rating scale 0-100 (0 no damage, 100 complete death)
Outline: as §1

[10] = tested on: johnsongrass (Sorghum halepense, SOH); assay: Pre-emerge test, johnsongrass; details: 250 g ai/ha, 14 days after application, rating scale 0-100 (0 no damage, 100 complete death)
Outline: as §1

[11] = tested on: large crabgrass (Digitaria sanguinalis, DIS); assay: Pre-emerge test, large crabgrass; details: 250 g ai/ha, 14 days after application, rating scale 0-100 (0 no damage, 100 complete death)
Outline: as §1

[12] = tested on: field corn (Zea mays L., var. Dekalb 535, CORN); assay: Pre-emerge test, crop damage field corn; details: pre-emerge, 250 g ai/ha, 14 days after application, rating scale 0-100 (0 no damage, 100 complete death)
Outline: (§2)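 Seeds planted 1 day pre-application in sandy loam soil mix; acetone solutions sprayed at 8 to 1000 g ai/ha (187 l/ha, flat fan nozzle, track sprayer). 14 d later, visual damage scored on a 0–100 scale.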

[13] = tested on: soybean (Glycine max L., var. Pella 86, SOY); assay: Pre-emerge test, crop damage soybean; details: pre-emerge, 250 g ai/ha, 14 days after application, rating scale 0-100 (0 no damage, 100 complete death)
Outline: as §2

[14] = tested on: upland rice (Oryza sp., var.Tebonnet, RICE); assay: Pre-emerge test, crop damage upland rice; details: pre-emerge, 250 g ai/ha, 14 days after application, rating scale 0-100 (0 no damage, 100 complete death)
Outline: as §2

[15] = tested on: wheat (Triticum aestivum); assay: Pre-emerge test, crop damage wheat; details: pre-emerge, 250 g ai/ha, 14 days after application, rating scale 0-100 (0 no damage, 100 complete death)
Outline: as §2

[16] = tested on: redroot pigweed (Amaranthus retroflexus, AMR); assay: Post-emerge test, redroot pigweed; details: 250 g ai/ha, 14 days after application, rating scale 0-100 (0 no damage, 100 complete death)
Outline: (§3)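 A greenhouse foliar screen: the compound was applied over the top of 2-3 leaf plants by a flat-fan track sprayer at 8 to 1000 g ai/ha. It was delivered in acetone at 187 l/ha, with 0.25% v/v non-ionic surfactant added for leaf wetting. Injury was judged 14 days on, from 0 (none) to 100 (complete kill).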

[17] = tested on: velvetleaf (Abutilon theophrasti, ABT); assay: Post-emerge test, velvetleaf; details: 250 g ai/ha, 14 days after application, rating scale 0-100 (0 no damage, 100 complete death)
Outline: as §3

[18] = tested on: sicklepod (Cassia obtusifolia, CAO); assay: Post-emerge test, sicklepod; details: 250 g ai/ha, 14 days after application, rating scale 0-100 (0 no damage, 100 complete death)
Outline: as §3

[19] = tested on: ivyleaf morningglory (Ipomoea hederacea, IPH); assay: Post-emerge test, ivyleaf morningglory; details: 250 g ai/ha, 14 days after application, rating scale 0-100 (0 no damage, 100 complete death)
Outline: as §3

[20] = tested on: lambsquarters (Chenopodium album, CHA); assay: Post-emerge test, lambsquarters; details: 250 g ai/ha, 14 days after application, rating scale 0-100 (0 no damage, 100 complete death)
Outline: as §3

[21] = tested on: common ragweed (Ambrosia artemisiifolia L., AML); assay: Post-emerge test, common ragweed; details: 250 g ai/ha, 14 days after application, rating scale 0-100 (0 no damage, 100 complete death)
Outline: as §3

[22] = tested on: cocklebur (Xanthium strumariunt, XAS); assay: Post-emerge test, cocklebur; details: 250 g ai/ha, 14 days after application, rating scale 0-100 (0 no damage, 100 complete death)
Outline: as §3

[23] = tested on: green foxtail (Setaria viridis, SEV); assay: Post-emerge test, green foxtail; details: 250 g ai/ha, 14 days after application, rating scale 0-100 (0 no damage, 100 complete death)
Outline: as §3

[24] = tested on: barnyardgrass (Echinachloa crus-galli, ECC); assay: Post-emerge test, barnyardgrass; details: 250 g ai/ha, 14 days after application, rating scale 0-100 (0 no damage, 100 complete death)
Outline: as §3

[25] = tested on: johnsongrass (Sorghum halepense, SOH); assay: Post-emerge test, johnsongrass; details: 250 g ai/ha, 14 days after application, rating scale 0-100 (0 no damage, 100 complete death)
Outline: as §3

[26] = tested on: large crabgrass (Digitaria sanguinalis, DIS); assay: Post-emerge test, large crabgrass; details: 250 g ai/ha, 14 days after application, rating scale 0-100 (0 no damage, 100 complete death)
Outline: as §3

[27] = tested on: field corn (Zea mays L., var. Dekalb 535, CORN); assay: Post-emerge test, crop damage field corn; details: post-emerge, 250 g ai/ha, 14 days after application, rating scale 0-100 (0 no damage, 100 complete death)
Outline: as §3

[28] = tested on: soybean (Glycine max L., var. Pella 86, SOY); assay: Post-emerge test, crop damage soybean; details: post-emerge, 250 g ai/ha, 14 days after application, rating scale 0-100 (0 no damage, 100 complete death)
Outline: as §3

[29] = tested on: upland rice (Oryza sp., var.Tebonnet, RICE); assay: Post-emerge test, crop damage upland rice; details: post-emerge, 250 g ai/ha, 14 days after application, rating scale 0-100 (0 no damage, 100 complete death)
Outline: as §3

[30] = tested on: wheat (Triticum aestivum); assay: Post-emerge test, crop damage wheat; details: post-emerge, 250 g ai/ha, 14 days after application, rating scale 0-100 (0 no damage, 100 complete death)
Outline: as §3

Row | SMILES | Pre-emerge Herbicidal Activity AMR (phytotoxicity rating) [1] | Pre-emerge Herbicidal Activity ABT (phytotoxicity rating) [2] | Pre-emerge Herbicidal Activity CAO (phytotoxicity rating) [3] | Pre-emerge Herbicidal Activity IPH (phytotoxicity rating) [4] | Pre-emerge Herbicidal Activity CHA (phytotoxicity rating) [5] | Pre-emerge Herbicidal Activity AML (phytotoxicity rating) [6] | Pre-emerge Herbicidal Activity XAS (phytotoxicity rating) [7] | Pre-emerge Herbicidal Activity SEV (phytotoxicity rating) [8] | Pre-emerge Herbicidal Activity ECC (phytotoxicity rating) [9] | Pre-emerge Herbicidal Activity SOH (phytotoxicity rating) [10] | Pre-emerge Herbicidal Activity DIS (phytotoxicity rating) [11] | Pre-emerge crop damage CORN (phytotoxicity rating) [12] | Pre-emerge crop damage SOY (phytotoxicity rating) [13] | Pre-emerge crop damage RICE (phytotoxicity rating) [14] | Pre-emerge crop damage WHEAT (phytotoxicity rating) [15] | Post-emerge Herbicidal Activity AMR (phytotoxicity rating) [16] | Post-emerge Herbicidal Activity ABT (phytotoxicity rating) [17] | Post-emerge Herbicidal Activity CAO (phytotoxicity rating) [18] | Post-emerge Herbicidal Activity IPH (phytotoxicity rating) [19] | Post-emerge Herbicidal Activity CHA (phytotoxicity rating) [20] | other results
1 | CC1Oc2cc(F)c(-c3nn(C)c(C(F)(F)F)c3Cl)c3c2N(C1=O)C(C(C)C)C(=O)N3 (mixture of isomers) [1-53] | 100 | 100 | 100 | 95 | 100 | 95 | 100 | 99 | 95 | 90 | 98 | 25 | 50 | 5 | 15 | 100 | 100 | 50 | 100 | 100 | Post-emerge Herbicidal Activity AML (phytotoxicity rating) [21]: 75; Post-emerge Herbicidal Activity XAS (phytotoxicity rating) [22]: 100; Post-emerge Herbicidal Activity SEV (phytotoxicity rating) [23]: 60; Post-emerge Herbicidal Activity ECC (phytotoxicity rating) [24]: 70; Post-emerge Herbicidal Activity SOH (phytotoxicity rating) [25]: 0; Post-emerge Herbicidal Activity DIS (phytotoxicity rating) [26]: 0; Post-emerge crop damage CORN (phytotoxicity rating) [27]: 5; Post-emerge crop damage SOY (phytotoxicity rating) [28]: 20; Post-emerge crop damage RICE (phytotoxicity rating) [29]: 0; Post-emerge crop damage WHEAT (phytotoxicity rating) [30]: 10
2 | CC1Oc2cc(F)c(-c3nn(C)c(C(F)(F)F)c3Cl)c3c2N(C1=O)C(C)C(=O)N3 (mixture of isomers) [1-51] | 100 | 100 | 100 | 98 | 100 | 100 | 99 | 100 | 100 | 100 | 100 | 70 | 65 | 70 | 60 | 100 | 100 | 100 | 100 | 100 | Post-emerge Herbicidal Activity AML (phytotoxicity rating) [21]: 85; Post-emerge Herbicidal Activity XAS (phytotoxicity rating) [22]: 100; Post-emerge Herbicidal Activity SEV (phytotoxicity rating) [23]: 100; Post-emerge Herbicidal Activity ECC (phytotoxicity rating) [24]: 100; Post-emerge Herbicidal Activity SOH (phytotoxicity rating) [25]: 80; Post-emerge Herbicidal Activity DIS (phytotoxicity rating) [26]: 90; Post-emerge crop damage CORN (phytotoxicity rating) [27]: 50; Post-emerge crop damage SOY (phytotoxicity rating) [28]: 60; Post-emerge crop damage RICE (phytotoxicity rating) [29]: 75; Post-emerge crop damage WHEAT (phytotoxicity rating) [30]: 60
3 | Cc1nn(-c2c(F)cc3c4c2NC(=O)CN4C(=O)CO3)c(=O)n1C(F)F [1-73] | 100 | 100 | 90 | 100 | 100 | 80 | 65 | 100 | 100 | 100 | 100 | 100 | 60 | 100 | 90 | 30 | 65 | 0 | 55 | 90 | Post-emerge Herbicidal Activity AML (phytotoxicity rating) [21]: 50; Post-emerge Herbicidal Activity XAS (phytotoxicity rating) [22]: 40; Post-emerge Herbicidal Activity SEV (phytotoxicity rating) [23]: 50; Post-emerge Herbicidal Activity ECC (phytotoxicity rating) [24]: 0; Post-emerge Herbicidal Activity SOH (phytotoxicity rating) [25]: 0; Post-emerge Herbicidal Activity DIS (phytotoxicity rating) [26]: 0; Post-emerge crop damage CORN (phytotoxicity rating) [27]: 0; Post-emerge crop damage SOY (phytotoxicity rating) [28]: 60; Post-emerge crop damage RICE (phytotoxicity rating) [29]: 75; Post-emerge crop damage WHEAT (phytotoxicity rating) [30]: 0
4 | Cn1c(C(F)(F)F)cc(=O)n(-c2c(F)cc3c4c2NC(=O)CN4C(=O)CO3)c1=O [1-1, 8-[1-methyl-6-(trifluoromethyl)-2,4-(1H, 3H)-pyrimidinedione-3-yl]-9-fluoro-5H-pyrazino[1,2,3-de]-1,4-benzoxazine-3,6-(2H, 7H)-dione] | 100 | 100 | 100 | 100 | 100 | 100 | 99 | 100 | 100 | 100 | 100 | 100 | 100 | 100 | 100 | 100 | 100 | 40 | 100 | 98 | Post-emerge Herbicidal Activity AML (phytotoxicity rating) [21]: 65; Post-emerge Herbicidal Activity XAS (phytotoxicity rating) [22]: 100; Post-emerge Herbicidal Activity SEV (phytotoxicity rating) [23]: 95; Post-emerge Herbicidal Activity ECC (phytotoxicity rating) [24]: 60; Post-emerge Herbicidal Activity SOH (phytotoxicity rating) [25]: 25; Post-emerge Herbicidal Activity DIS (phytotoxicity rating) [26]: 0; Post-emerge crop damage CORN (phytotoxicity rating) [27]: 0; Post-emerge crop damage SOY (phytotoxicity rating) [28]: 95; Post-emerge crop damage RICE (phytotoxicity rating) [29]: 99; Post-emerge crop damage WHEAT (phytotoxicity rating) [30]: 25
